“And” between values parts separate entries of the source, which are not always exact repeats. Equal entries are not always repeated.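 Where inhibition never reached the appropriate level, the endpoint shown equals the highest concentration tested. Otherwise, values were interpolated linearly from a five-concentration, 48-hour dose response in 96-well plates. At the GI50, growth is halved. Definition used: TGI = concentration required for complete inhibition of growth.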
Legend:
Test in all cases: DTP human tumour cell line panel, 48 h
HOP-92 NSCLC = system: HOP-92 NSCLC
MOLT-4 leukemia = system: MOLT-4 leukemia
SK-MEL-5 melanoma = system: SK-MEL-5 melanoma
HT29 colon = system: HT29 colon
HCT-15 colon = system: HCT-15 colon
T-47D breast = system: T-47D breast
A498 renal = system: A498 renal
SF-295 CNS = system: SF-295 CNS
OVCAR-4 ovarian = system: OVCAR-4 ovarian
RPMI-8226 leukemia = system: RPMI-8226 leukemia

Compound	GI50 (HOP-92 NSCLC)	TGI (HOP-92 NSCLC)	GI50 (MOLT-4 leukemia)	TGI (MOLT-4 leukemia)	GI50 (SK-MEL-5 melanoma)	TGI (SK-MEL-5 melanoma)	GI50 (HT29 colon)	TGI (HT29 colon)	GI50 (HCT-15 colon)	TGI (HCT-15 colon)	GI50 (T-47D breast)	TGI (T-47D breast)	GI50 (A498 renal)	TGI (A498 renal)	GI50 (SF-295 CNS)	GI50 (OVCAR-4 ovarian)	TGI (OVCAR-4 ovarian)	GI50 (RPMI-8226 leukemia)	TGI (RPMI-8226 leukemia)	TGI (SF-295 CNS)
CC[C@H](Nc1nc(NCc2cnc(C)cc2C)c2ncn(C(C)C)c2n1)[C@@H](C)O	279 nM	2270 nM	339 nM	> 100000 nM	219 nM	498 nM	331 nM	> 100000 nM	349 nM	4890 nM	402 nM	> 100000 nM	167 nM	391 nM	298 nM	631 nM	11500 nM	308 nM	14200 nM	–
CC(C)(O)CS(=O)(=O)Nc1ccc2c(c1)CCN(C(=O)COc1cccnc1)C2	97500 nM	> 100000 nM	> 100000 nM	> 100000 nM	> 100000 nM	> 100000 nM	743 nM	> 100000 nM	476 nM	> 100000 nM	> 35200 nM	> 100000 nM	> 100000 nM	> 100000 nM	> 61600 nM	> 100000 nM	> 100000 nM	799 nM	> 100000 nM	> 100000 nM
CCOC(=O)c1[nH]c(Br)c(-c2ccc(Br)cc2)c1Br	1580 nM	7860 nM and 7980 nM	–	11400 nM	–	19100 nM	–	1320 nM and 1620 nM	250 nM	> 100000 nM	2660 nM	65700 nM	288 nM	5280 nM and 1220 nM	145 nM	–	3600 nM and 3500 nM	357 nM	3920 nM	763 nM and 815 nM
O=C1/C(=C/c2ccccc2)CN(C(=O)c2cccnc2)C/C1=C\c1ccccc1	10900 nM	23600 nM	752 nM	> 100000 nM	1800 nM	3680 nM	241 nM	563 nM	331 nM	1380 nM	2920 nM	12200 nM	2190 nM	5420 nM	1790 nM	3300 nM	13800 nM	318 nM	1440 nM	4230 nM
COc1cc(-c2nn(-c3cccc(NC(=O)Nc4cc(C(F)(F)F)cc(C(F)(F)F)c4)c3)cc2-c2ccncc2)ccc1Cl	107 nM	640 nM	1080 nM	4480 nM	629 nM	1300 nM	619 nM	1680 nM	756 nM	2970 nM	1030 nM	26700 nM	587 nM	2130 nM	241 nM	698 nM	12900 nM	203 nM	7740 nM	921 nM
Cc1cc2nc3c4cc(N)ccc4n(CCN(C)C)c3nc2cc1C	527 nM	5050 nM	376 nM	> 31900 nM	1480 nM	2880 nM	478 nM	6590 nM	499 nM	10200 nM	1710 nM	12300 nM	763 nM	2320 nM	705 nM	1790 nM	9640 nM	606 nM	4860 nM	4030 nM
C=C1C(=O)O[C@H]2[C@H]1CC/C(Cn1cc(-c3cc(C(F)(F)F)cc(C(F)(F)F)c3)nn1)=C\CC[C@@]1(C)O[C@@H]21	344 nM	1440 nM	191 nM	603 nM	1470 nM	2780 nM	190 nM	486 nM	191 nM	454 nM	330 nM	1620 nM	437 nM	1710 nM	1190 nM	508 nM	1800 nM	221 nM	522 nM	2530 nM
COc1c(OC)c(OC)c2c(c1OC)c(=O)c1ccccc1n2C	–	> 100000 nM	–	> 100000 nM	–	> 100000 nM	–	> 100000 nM	–	> 100000 nM	–	> 100000 nM	–	> 100000 nM	–	–	> 100000 nM	–	> 100000 nM	> 100000 nM
CC1(C)N=C(N)N=C(N)N1c1ccc(OCCCCOc2ccc(S(=O)(=O)F)cc2)c(Cl)c1	671 nM	10900 nM	135 nM	16300 nM	346 nM	8500 nM	51.9 nM	13400 nM	1120 nM	> 100000 nM	1140 nM	13200 nM	1100 nM	19900 nM	286 nM	6400 nM	27700 nM	116 nM	12000 nM	11500 nM
COC(=O)C1=C(C(=O)ON)C2C=CC1(C(Cc1ccccc1)Nc1ccccc1)O2 (stereo not drawn)	1510 nM	2910 nM	2900 nM	9490 nM	14100 nM	27200 nM	1790 nM	3420 nM	1730 nM	3500 nM	1460 nM	3250 nM	14700 nM	27900 nM	13800 nM	1660 nM	3120 nM	2330 nM	6510 nM	26700 nM
C=C(CN1C(=O)[C@H]2CCCN2C(=O)c2ccccc21)c1ccc(C(=O)O)cc1	> 100000 nM	> 100000 nM	> 100000 nM	> 100000 nM	> 100000 nM	> 100000 nM	> 100000 nM	> 100000 nM	> 100000 nM	> 100000 nM	> 100000 nM	> 100000 nM	> 100000 nM	> 100000 nM	> 100000 nM	> 100000 nM	> 100000 nM	> 100000 nM	> 100000 nM	> 100000 nM
CC1=C2C[C@H]3[C@@H](CC[C@@H]4CC(NS(C)(=O)=O)CC[C@@]43C)[C@@H]2CC[C@@]2(C1)O[C@@H]1C[C@H](C)CN[C@H]1[C@H]2C (stereo partly drawn)	1150 nM	12700 nM	5500 nM	23200 nM	2180 nM	5630 nM	3500 nM	11300 nM	5900 nM	21400 nM	2680 nM	7510 nM	13200 nM	26800 nM	12500 nM	1660 nM	4790 nM	7620 nM	29500 nM	26100 nM
COc1ncc(-c2ccc3nccc(-c4ccnnc4)c3c2)cc1NS(=O)(=O)c1ccc(F)cc1F	1.09 nM and < 10 nM	8.72 nM and < 10 nM	5.05 nM and < 10 nM	801 nM and 579 nM	23.7 nM and 15.4 nM	141 nM and 96.6 nM	3.25 nM and < 10 nM	> 10000 nM and 4250 nM	6.32 nM and < 10 nM	> 4830 nM and 5110 nM	–	4.28 nM	1.5 nM	8.26 nM	5.37 nM and < 10 nM	33 nM and 21.7 nM	–	32.1 nM and 29.7 nM	656 nM and 963 nM	59.5 nM and 29.9 nM
COc1cc2cc(Oc3ccc(NC(=O)Nc4cccc(C(F)(F)F)c4)cc3)c(C)nc2cc1OC	1260 nM	3960 nM	1550 nM	6870 nM	1080 nM	2660 nM	2050 nM	6260 nM	1850 nM	22200 nM	1610 nM	6680 nM	1290 nM	4950 nM	1130 nM	2300 nM	9700 nM	1050 nM	2960 nM	3590 nM
N[C@@H]1CCCC[C@H]1N.O=C([O-])C(=O)[O-].[Pt+4]	25500 nM	> 74000 nM	137 nM	15600 nM	1140 nM	13300 nM	175 nM	> 8250 nM	646 nM	> 64900 nM	2210 nM	> 100000 nM	4850 nM	32700 nM	4710 nM	4090 nM	83800 nM	52.8 nM	> 91200 nM	> 100000 nM
Ic1ccccc1-c1ccccc1	13200 nM	> 100000 nM	26800 nM	> 100000 nM	> 100000 nM	> 100000 nM	> 100000 nM	> 100000 nM	> 100000 nM	> 100000 nM	70500 nM	> 100000 nM	65100 nM	> 100000 nM	> 100000 nM	> 100000 nM	> 100000 nM	62700 nM	> 100000 nM	> 100000 nM
CC(C)(C)c1nn(-c2ccccc2)c2c1C(=O)CSC(c1ccccc1Cl)N2 (stereo not drawn)	820 nM	14400 nM	3420 nM	16500 nM	966 nM	11000 nM	1970 nM	6550 nM	2000 nM	16000 nM	6100 nM	30000 nM	353 nM	3780 nM	746 nM	8480 nM	21900 nM	3020 nM	19300 nM	10500 nM
Nc1c(Br)cc(Br)c2c1[nH]c(=O)c1ccccc12	1960 nM	8570 nM	18400 nM	> 63800 nM	34000 nM	> 100000 nM	> 29700 nM	> 100000 nM	60100 nM	> 100000 nM	2410 nM	17500 nM	1680 nM	4860 nM	3100 nM	1340 nM	3430 nM	9890 nM	> 100000 nM	10200 nM

Reference: PubChem BioAssay (NCI)
